Patent US9969698B2, “Quinoxalinyl-piperazinamide methods of use” (REXAHN PHARMACEUTICALS, INC., priority 2015, dated 2018)
Read-outs that look alike come from different tables or passages of the source.

What was measured:
[1] = tested on: CYP450 isozymes 1A2, 2A6, 2B6, 2C8, 2C9, 2C19, 2D6; assay: Loss of RX-5902 after incubation with other expressed CYP450 isozymes; type: in vitro ADME; details: 30-minute incubation with any other CYP isozyme
Experimental: Two in vitro studies were performed to examine the involvement of specific cytochrome P450 (CYP450) isozymes in the in vitro metabolism of RX-5902. In the first study, the loss of RX-5902 was measured after incubation with expressed CYP450 isozymes (1A2, 2A6, 2B6, 2C8, 2C9, 2C19, 2D6, 3A4 and 3A5). […] In the second study, RX-5902 was incubated with pooled human liver microsomes in the presence of CYP450 isozyme-selective chemical inhibitors. The inhibitors tested were selective for 1A2, 2A6, 2B6, 2C8, 2C9, 2C19, 2D6, and 3A4/5.

[2] = tested on: MC38 murine colon cancer; assay: Syngeneic MC38 murine colon cancer model; type: in vivo
Experimental: Following the methods described below, the effect of RX-5902 on tumor growth in a syngeneic model using female C57BL/6 mice with MC38 murine colon cancer was examined. Tumor growth was measured in a treatment group compared to a control (vehicle treated) group (see Table 5 below for dosing schema and treatment regimen).
The present study consisted of five groups (n=10 per group) of female C57BL/6 mice bearing subcutaneous MC38 tumors (mean tumor volume range: 66-68 mm3) on Day (D1) of the study, when dosing began. Vehicle was administered orally (p.o.). RX-5902 was administered p.o. at 84.34 mg/kg (70 mg/kg active dose). Anti-PD-1 (RMP1-14) was administered at 100 μg/animal, intraperitoneally (i.p.). Group 1 mice served as controls and received PBS (vehicle) five days on, two days off for three cycles ((5/2)×3). Group 2 received RX-5902 (5/2)×3. Group 3 received anti-PD-1 twice weekly for two weeks (biwk×2). Group 4 received RX-5902 (5/2)×3 and anti-PD-1 biwk×2. The study endpoint was a tumor volume of 1500 mm^3 or 45 days, whichever came first. Tumor measurements were taken twice weekly until Day 45 with individual animals exiting the study upon reaching the tumor volume endpoint.
Partial treatment outcome was based on percent tumor growth inhibition (% TGI), defined as the percent difference between Day 28, chosen for the TGI analysis, median tumor volumes (MTVs) of treated and control mice. The results were analyzed and were deemed statistically significant at P≤0.05. A treatment that produced at least 60% TGI was considered to have potential therapeutic activity. Additionally, efficacy was determined from tumor growth delay (TGD), a measure of the increase in the median time to endpoint (TTE) in a treatment, compared to the control group. Response was additionally evaluated based on the number of study survivors, partial regression (PR) and complete regression (CR) responses, and logrank significance of differences in survival. Tolerability of the various treatments was assessed by body weight (BW) measurements and frequent observation for clinical symptoms and treatment-related (TR) side effects.

[3] = tested on: SK-MEL-28 cells; assay: Western blot of cyclin D1, c-Myc and p-c-Jun; type: cell-based
Experimental: (§1) MDA-MB-231, SK-MEL-28, and WI-38 cells were obtained from ATCC (Manassas, Va., USA) and were cultured according to the vendor's instructions. Anti-p68 antibody and antiY593-p68 antibody were purchased from Cell Signaling (Danvers, Mass.) and Abcam (Cambridge, Mass.), respectively. Antibodies against β-actin, cyclin D1, p-c-Jun and c-Myc, were purchased from Santa Cruz (Dallas, Tex.). Anti-phospho-tyrosine antibody and HRP conjugated GAPDH antibody were obtained from Cell Signaling (Danvers, Mass.). Recombinant β-catenin and p68 protein were purchased from Creative Biomart (Shirley, N.Y.) and Origene (Rockville, Md.), respectively.
(§2) RX-5902 was dissolved in DMSO to prepare a stock solution of 2 mM. The stock solution was stored at −20° C. and diluted with medium to prepare working concentrations.
(§3) Protein mix or cell lysates were separated by SDS-PAGE and transferred to PVDF membrane. The membrane was blocked by blocking buffer (1×TBST containing 5% BSA) at room temperature for 1 hour. After a brief wash, the membrane was incubated with primary antibody in blocking buffer at 4° C. overnight. After incubation in primary antibody, the membrane was washed with 1×TBST three times and subsequently incubated with HRP conjugated secondary antibody in blocking buffer at room temperature for 1 hour. The membrane was again washed three times and visualized by ECL system (Thermo Scientific, Rockford, Ill.).
(§4) Since RX-5902 directly binds to Y593 phospho-p68, it was hypothesized that treatment of cells with RX-5902 would interfere with the phospho-p68/β-catenin interaction and consequently affect the expression of several growth associated genes, including p-c-Jun, c-Myc and cyclin D, which are regulated by phospho-p68/β-catenin interaction. Thus, cyclin D1 and c-Myc expression, as well as phosphorylation of c-Jun in cells treated with RX-5902, were analyzed. Cancer cell lines, SK-MEL-28 and MDA-MB-231, and normal fetal lung fibroblasts, WI-38, were used.

[4] = tested on: WI-38 cells; assay: Western blot of cyclin D1, c-Myc and p-c-Jun; type: cell-based; details: even at 70 nM
Experimental: as §1, §2, §3, §4

[5] = Solubility assessment in solvents; type: physicochemical; details: organic solvent or mixture, thermodynamic from solid
Experimental: RX-5902 (ca. 2 mg) was weighed in a 1.5 ml clear glass vials. An aliquot of the corresponding solvent or solvent mixture was added at RT and solubility was assessed after 10 min as shown in Table 12. Solutions and suspensions were then placed into a shaking chamber at 50° C. for 10 more minutes. If no dissolution was observed, another aliquot of solvent was added and samples were placed in the shaking chamber at 50° C. for 10 more minutes. This procedure was repeated until dissolution was achieved or a maximum of 400 vol was added.

[6] = Solid state characterisation of Form 1; type: physicochemical; details: crystalline solid
Excerpt: A batch of RX-5902 was characterized by various solid state techniques. The supplied material was a crystalline solid, denoted as Form 1.

## COc1cc(OC)cc(N2CCN(C(=O)Nc3nc4cc(F)ccc4nc3OC)CC2)c1 [RX-5902, 4-(3,5-dimethoxyphenyl)-N-(7-fluoro-3-methoxyquinoxalin-2-yl)piperazine-1-carboxamide]
[1]
  loss of RX-5902: little loss
[2]; 45-day study, maximum possible 52%, RX-5902 84.34 mg/kg po (5/2)x3, anti-PD-1 100 μg/animal ip biwk x2
  TGD: 51%
[2]; 45-day study, RX-5902 84.34 mg/kg po (5/2)x3, anti-PD-1 100 μg/animal ip biwk x2
  median TTE: 44.8 days
[2]; Day 28, RX-5902 84.34 mg/kg po (5/2)x3, anti-PD-1 100 μg/animal ip biwk x2
  % TGI: 90%
[2]; median tumor volume of survivors
  MTV on D45: 14 mm^3
[2]; n=10 per group
  partial regressions (PR): three
  survivors on D45: Five
[3]; 20 nM
  cyclin D1, c-Myc and p-c-Jun protein levels: did not change protein levels
[3]; 70 nM
  cyclin D1, c-Myc expression and c-Jun phosphorylation: decrease in expression of both cyclin D1 and c-Myc and a decrease in c-Jun phosphorylation
[4]
  cyclin D1, c-Myc expression and c-Jun phosphorylation: did not result in any significant change
[5]; DMSO, 50 °C, read-out: Solubility at 50° C.
  solubility at 10 min: ≥ 100 mg/mL
[5]; DMSO, read-out: Solubility at RT
  solubility at 10 min: < 100 mg/mL
[5]; MEK, 50 °C, read-out: Solubility at 50° C.
  solubility at 10 min: ≥ 12.5 mg/mL
[5]; MEK, read-out: Solubility at RT
  solubility at 10 min: < 100 mg/mL
[5]; MIBK, 50 °C, read-out: Solubility at 50° C.
  solubility at 10 min: ≥ 6.25 mg/mL
[5]; MIBK, read-out: Solubility at RT
  solubility at 10 min: < 100 mg/mL
[5]; THF, 50 °C, read-out: Solubility at 50° C.
  solubility at 10 min: ≥ 25 mg/mL
[5]; THF, read-out: Solubility at RT
  solubility at 10 min: < 100 mg/mL
[5]; acetone, 50 °C, read-out: Solubility at 50° C.
  solubility at 10 min: ≥ 12.5 mg/mL
[5]; acetone, read-out: Solubility at RT
  solubility at 10 min: < 100 mg/mL
[5]; acetonitrile, 50 °C, read-out: Solubility at 50° C.
  solubility at 10 min: ≥ 12.5 mg/mL
[5]; acetonitrile, read-out: Solubility at RT
  solubility at 10 min: < 100 mg/mL
[5]; ethanol, 50 °C, read-out: Solubility at 50° C.
  solubility at 10 min: ≥ 2.5 mg/mL
[5]; ethanol, read-out: Solubility at RT
  solubility at 10 min: < 100 mg/mL
[5]; ethyl acetate, 50 °C, read-out: Solubility at 50° C.
  solubility at 10 min: ≥ 12.5 mg/mL
[5]; ethyl acetate, read-out: Solubility at RT
  solubility at 10 min: < 100 mg/mL
[5]; isopropanol-10% water, 50 °C, read-out: Solubility at 50° C.
  solubility at 10 min: ≥ 2.5 mg/mL
[5]; isopropanol-10% water, read-out: Solubility at RT
  solubility at 10 min: < 100 mg/mL
[5]; methanol, 50 °C, read-out: Solubility at 50° C.
  solubility at 10 min: ≥ 2.5 mg/mL
[5]; methanol, read-out: Solubility at RT
  solubility at 10 min: < 100 mg/mL
[6]
  hygroscopicity: non-hygroscopic
  stability to humidity: stable to exposure to humidity
